≈ marks a conversion by molar mass, not a printed value.
Legend:
Assay type in all cases: functional, cell-based
[1] = tested on: DU-145; test: Cytotoxicity against human DU145 cells by SRB assay
[2] = tested on: KB; test: Cytotoxicity against human KB cells by SRB assay
[3] = tested on: A549; test: Cytotoxicity against human A549 cells by SRB assay
[4] = Cytotoxicity against human KBVIN cells by SRB assay
[5] = Homo sapiens, DU-145, read-out: IC50
[6] = Homo sapiens, KB, read-out: IC50
[7] = Homo sapiens, KBVIN, read-out: IC50

Compound	IC50 ([1]; du-145) [µg/mL]	IC50 ([2]; kb) [µg/mL]	IC50 ([3]; a549) [µg/mL]	IC50 ([4]; kbvin) [µg/mL]	IC50 [1, 5] [µg/mL]	IC50 [2, 6] [µg/mL]	IC50 [4, 7] [µg/mL]	IC50 ([3]; Homo sapiens, A549, read-out: IC50) [µg/mL]
C=C(C)[C@H]1Cc2c(ccc3c2O[C@@H]2COc4cc(OC)c(OC)cc4[C@@H]2/C3=N\OC(=O)C2CC(C)(C)N([O])C2(C)C)O1 (some centres not stated)	0.322 (≈ 0.557 µM)	0.56 (≈ 0.969 µM)	0.471 (≈ 0.815 µM)	0.298 (≈ 0.516 µM)	–	–	–	–
C=C(C)[C@H]1Cc2c(ccc3c2O[C@@H]2COc4cc(OC)c(OC)cc4[C@@H]2[C@@H]3OC(=O)C2=CC(C)(C)N([O])C2(C)C)O1	0.223 (≈ 0.396 µM)	0.273 (≈ 0.485 µM)	0.408 (≈ 0.725 µM)	0.075 (≈ 0.133 µM)	–	–	–	–
C=C(C)[C@H]1Cc2c(ccc3c2O[C@@H]2COc4cc(OC)c(OC)cc4[C@@H]2[C@@H]3OC(=O)C2CC(C)(C)N([O])C2(C)C)O1 (some centres not stated)	0.277 (≈ 0.491 µM)	0.443 (≈ 0.785 µM)	0.533 (≈ 0.944 µM)	0.241 (≈ 0.427 µM)	–	–	–	–
C=C(C)[C@H]1Cc2c(ccc3c2O[C@@H]2COc4cc(OC)c(OC)cc4[C@@H]2[C@@H]3OC(=O)C2=CC(C)(C)N([O])C(C)(C)C2)O1	0.322 (≈ 0.558 µM)	0.427 (≈ 0.74 µM)	0.578 (≈ 1 µM)	0.299 (≈ 0.518 µM)	–	–	–	–
C=C(C)[C@H]1Cc2c(ccc3c2O[C@@H]2COc4cc(OC)c(OC)cc4[C@@H]2[C@@H]3OC(=O)C2CC(C)(C)N([O])C(C)(C)C2)O1	0.266 (≈ 0.46 µM)	0.408 (≈ 0.705 µM)	0.523 (≈ 0.904 µM)	0.092 (≈ 0.159 µM)	–	–	–	–
C=C(C)[C@H]1Cc2c(ccc3c2O[C@@H]2COc4cc(OC)c(OC)cc4[C@@H]2/C3=N\OC(=O)C2=CC(C)(C)N([O])C2(C)C)O1	0.426 (≈ 0.74 µM)	0.633 (≈ 1.1 µM)	0.738 (≈ 1.28 µM)	0.62 (≈ 1.08 µM)	–	–	–	–
C=C(C)[C@H]1Cc2c(ccc3c2O[C@@H]2COc4cc(OC)c(OC)cc4[C@@H]2/C3=N\OC(=O)C2=CC(C)(C)N([O])C(C)(C)C2)O1	0.358 (≈ 0.607 µM)	0.575 (≈ 0.975 µM)	0.542 (≈ 0.919 µM)	0.162 (≈ 0.275 µM)	–	–	–	–
C=C(C)[C@H]1Cc2c(ccc3c2O[C@@H]2COc4cc(OC)c(OC)cc4[C@@H]2/C3=N\OC(=O)C2CC(C)(C)N([O])C(C)(C)C2)O1	0.488 (≈ 0.825 µM)	0.523 (≈ 0.884 µM)	0.651 (≈ 1.1 µM)	0.358 (≈ 0.605 µM)	–	–	–	–
C=C(C)[C@H]1Cc2c(ccc3c2O[C@@H]2COc4cc(OC)c(OC)cc4[C@@H]2[C@@H]3OC(=O)CNC(=O)OC2CC(C)(C)N([O])C(C)(C)C2)O1	0.45 (≈ 0.69 µM)	0.51 (≈ 0.783 µM)	0.624 (≈ 0.957 µM)	0.41 (≈ 0.629 µM)	–	–	–	–
C=C(C)[C@H]1Cc2c(ccc3c2O[C@@H]2COc4cc(OC)c(OC)cc4[C@@H]2[C@@H]3OC(=O)[C@H](C)NC(=O)OC2CC(C)(C)N([O])C(C)(C)C2)O1	0.417 (≈ 0.626 µM)	0.442 (≈ 0.664 µM)	0.65 (≈ 0.976 µM)	0.357 (≈ 0.536 µM)	–	–	–	–
C=C(C)[C@H]1Cc2c(ccc3c2O[C@@H]2COc4cc(OC)c(OC)cc4[C@@H]2[C@@H]3OC(=O)[C@@H](NC(=O)OC2CC(C)(C)N([O])C(C)(C)C2)C(C)C)O1	0.451 (≈ 0.65 µM)	0.497 (≈ 0.716 µM)	0.615 (≈ 0.886 µM)	0.381 (≈ 0.549 µM)	–	–	–	–
C=C(C)[C@H]1Cc2c(ccc3c2O[C@@H]2COc4cc(OC)c(OC)cc4[C@@H]2[C@@H]3OC(=O)[C@H](CC(C)C)NC(=O)OC2CC(C)(C)N([O])C(C)(C)C2)O1	0.443 (≈ 0.626 µM)	0.483 (≈ 0.682 µM)	0.521 (≈ 0.736 µM)	0.355 (≈ 0.502 µM)	–	–	–	–
C=C(C)[C@H]1Cc2c(ccc3c2O[C@@H]2COc4cc(OC)c(OC)cc4[C@@H]2[C@@H]3OC(=O)[C@@H](NC(=O)OC2CC(C)(C)N([O])C(C)(C)C2)C(C)CC)O1 (some centres not stated)	0.396 (≈ 0.559 µM)	0.516 (≈ 0.729 µM)	0.649 (≈ 0.917 µM)	0.399 (≈ 0.564 µM)	–	–	–	–
C=C(C)[C@H]1Cc2c(ccc3c2O[C@@H]2COc4cc(OC)c(OC)cc4[C@@H]2[C@@H]3OC(=O)[C@H](Cc2ccccc2)NC(=O)OC2CC(C)(C)N([O])C(C)(C)C2)O1	0.462 (≈ 0.623 µM)	0.509 (≈ 0.686 µM)	0.713 (≈ 0.961 µM)	0.383 (≈ 0.516 µM)	–	–	–	–
C=C(C)[C@H]1Cc2c(ccc3c2O[C@@H]2COc4cc(OC)c(OC)cc4[C@@H]2[C@@H]3OC(=O)[C@H](Cc2c[nH]c3ccccc23)NC(=O)OC2CC(C)(C)N([O])C(C)(C)C2)O1	0.477 (≈ 0.611 µM)	0.565 (≈ 0.724 µM)	0.631 (≈ 0.808 µM)	0.414 (≈ 0.53 µM)	–	–	–	–
CC(=O)O[C@H]1C(=O)[C@@]2(C)[C@H]([C@H](OC(=O)c3ccccc3)[C@]3(O)C[C@H](OC(=O)[C@H](O)[C@@H](NC(=O)c4ccccc4)c4ccccc4)C(C)=C1C3(C)C)[C@]1(OC(C)=O)CO[C@@H]1C[C@@H]2O [PACLITAXEL]	–	–	–	–	0.0037 (≈ 0.00433 µM)	0.0048 (≈ 0.00562 µM)	1.15 (≈ 1.34 µM)	–
C=C(C)[C@H]1Cc2c(ccc3c2O[C@@H]2COc4cc(OC)c(OC)cc4[C@@H]2C3=O)O1 [ROTENONE]	–	–	–	–	0.465 (≈ 1.18 µM)	0.513 (≈ 1.3 µM)	0.595 (≈ 1.51 µM)	0.901 (≈ 2.28 µM)

From ChEMBL document CHEMBL1938345, “Design, synthesis and cytotoxic activity of novel spin-labeled rotenone derivatives” (Bioorg Med Chem Lett, 2012)
